The test has as its target full length MPS1 (Homo sapiens (Human), UniProt P33981). Description: Measurement of inhibition of MPS1 kinase (Caliper EZ reader mobility-shift enzyme assay). Type of test: biochemical. The settings on record: full length MPS1 12.5 nM or 3 nM, H236 peptide 5 μM, ATP 10 μM, 60 min at room temperature. The protocol:
Measurement of Inhibition of MPS1 Kinase
The reaction was carried out for 60 min at room temperature and stopped by the addition of buffer (10 μl) containing 20 mM EDTA, 0.05% (v/v) Brij-35, in 0.1M HEPES-buffered saline (Free acid, Sigma, UK). The plate was read on a Caliper EZ reader II (Caliper Life Sciences).
The % inhibition of the compounds is calculated relative to the means of selected control wells.

Where only a bound is given, the exact number is not on record here.

Sequence of full length MPS1 (P33981 whole entry): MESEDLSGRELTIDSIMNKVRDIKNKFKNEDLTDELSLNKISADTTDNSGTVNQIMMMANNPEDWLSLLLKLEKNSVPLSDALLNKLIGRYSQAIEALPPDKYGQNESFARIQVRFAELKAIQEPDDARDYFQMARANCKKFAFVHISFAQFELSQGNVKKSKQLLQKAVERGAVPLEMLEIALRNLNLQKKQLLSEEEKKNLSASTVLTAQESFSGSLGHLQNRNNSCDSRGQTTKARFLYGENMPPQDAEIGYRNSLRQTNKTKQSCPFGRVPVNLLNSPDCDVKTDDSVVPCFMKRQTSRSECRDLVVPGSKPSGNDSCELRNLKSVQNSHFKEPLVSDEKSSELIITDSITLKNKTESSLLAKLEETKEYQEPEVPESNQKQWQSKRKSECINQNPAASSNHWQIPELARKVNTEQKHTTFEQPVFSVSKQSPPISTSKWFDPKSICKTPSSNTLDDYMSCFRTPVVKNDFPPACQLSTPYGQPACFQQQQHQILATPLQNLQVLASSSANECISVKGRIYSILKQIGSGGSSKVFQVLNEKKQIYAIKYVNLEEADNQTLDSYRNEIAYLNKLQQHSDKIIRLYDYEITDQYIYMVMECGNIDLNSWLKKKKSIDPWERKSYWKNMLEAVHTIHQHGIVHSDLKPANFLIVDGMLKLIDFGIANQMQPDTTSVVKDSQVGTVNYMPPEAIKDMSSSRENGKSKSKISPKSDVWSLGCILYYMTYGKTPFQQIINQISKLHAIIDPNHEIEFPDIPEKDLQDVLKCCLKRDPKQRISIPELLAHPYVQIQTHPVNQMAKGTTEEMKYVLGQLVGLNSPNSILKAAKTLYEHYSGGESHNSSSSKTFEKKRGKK

In general, IC50 refers to the point on the concentration scale where inhibition reaches its midpoint. Regarding `COCCn1c(-c2ccc(Nc3ncc4ccnc(NCC(C)(C)OC)c4n3)c(OC)c2)cnc1C` [Example 186], the IC50 turned out to be 4 nM.
Regarding `COc1cc(-c2cnn(C)c2)ccc1Nc1ncc2ccnc(NC3COC3)c2n1` [Example 111, N^2-(2-methoxy-4-(1-methyl-1H-pyrazol-4-yl)phenyl)-N^8-(oxetan-3-yl)pyrido[3,4-d]pyrimidine-2,8-diamine], the IC50 is above 1000 nM.
In the case of `COc1nc(-c2cnnn2C)ccc1Nc1ncc2ccnc(NCC(C)(C)OC)c2n1` [Example 166, N^8-(2-Methoxy-2-methylpropyl)-N^2-(2-methoxy-6-(1-methyl-1H-1,2,3-triazol-5-yl)pyridin-3-yl)pyrido[3,4-d]pyrimidine-2,8-diamine] it was 3 nM.
Next, `COc1cc(N2CCN(C)CC2)ccc1Nc1ncc2ccnc(NCC(C)(C)C)c2n1` [Example 173, N2-(2-methoxy-4-(4-methylpiperazin-1-yl)phenyl)-N8-neopentylpyrido[3,4-d]pyrimidine-2,8-diamine]: 4 nM; `COC1CN(C(=O)c2ccc(Nc3cc4c(-c5cnn(C)c5)cccc4cn3)c(Cl)c2)C1` [Example 22]: 100 nM; `COc1cc(-c2cnn(C)c2)ccc1Nc1ncc2ccnc(N(C)C)c2n1` [Example 108, N^2-(2-methoxy-4-(1-methyl-1H-pyrazol-4-yl)phenyl)-N^8,N^8-dimethylpyrido[3,4-d]pyrimidine-2,8-diamine]: 16 nM.
As to `COc1cc(-c2cnn(C)c2)ccc1Nc1ncc2ccnc(NCC3(F)COC3)c2n1` [Example 124, N^8-((3-fluorooexetan-3-yl)methyl)-N^2-(2-methoxy-4-(1-methyl-1H-pyrazol-4-yl)phenyl)pyrido[3,4-d]pyrimidine-2,8-diamine], the IC50 is above 1000 nM.
Consider `COc1cc(-c2cn(C)nc2C)ccc1Nc1ncc2ccnc(NCC(C)(C)OC)c2n1` [Example 190], for which the concentration for half-maximal inhibition (IC50) was found to be 3 nM.
With `COc1cc(-c2c(C)noc2C)ccc1Nc1cc2c(-c3cnn(C)c3)cccc2cn1` [Example 18, N-(4-(3,5-dimethylisoxazol-4-yl)-2-methoxyphenyl)-5-(1-methyl-1H-pyrazol-4-yl)isoquinolin-3-amine], the IC50 was 95 nM.
Next, `COc1cc(-c2cnn(C)c2)ccc1Nc1ncc2ccnc(NCC3(O)CC3)c2n1` [Example 112, 1-((2-(2-methoxy-4-(1-methyl-1H-pyrazol-4-yl)phenylamino)pyrido[3,4-d]pyrimidin-8-ylamino)methyl)cyclopropanol]: 5 nM; `CNc1nccc2cnc(Nc3ccc(-c4cnn(C)c4)cc3OC)nc12` [Example 110, N^2-(2-methoxy-4-(1-methyl-1H-pyrazol-4-yl)phenyl)-N^8-methylpyrido[3,4-d]pyrimidine-2,8-diamine]: 17 nM.
Next, `COc1cc(-c2cnn(C)c2)ccc1Nc1ncc2ccnc(Cl)c2n1` [Example 94, 8-chloro-N-(2-methoxy-4-(1-methyl-1H-pyrazol-4-yl)phenyl)pyrido[3,4-d]pyrimidin-2-amine]: 164 nM.
In the case of `COCC(CO)Nc1nccc2cnc(Nc3ccc(-c4cnn(C)c4)cc3OC)nc12` (stereo not drawn) [Example 131, 3-Methoxy-2-(2-(2-methoxy-4-(1-methyl-1H-pyrazol-4-yl)phenylamino)pyrido[3,4-d]pyrimidin-8-ylamino)propan-1-ol] it was 4 nM; in that of `CCOc1cc(-c2cnn(C)c2)ccc1Nc1ncc2ccnc(NC3CCOCC3)c2n1` [Example 102, N2-(2-ethoxy-4-(1-methyl-1H-pyrazol-4-yl)phenyl)-N8-(tetrahydro-2H-pyran-4-yl)pyrido[3,4-d]pyrimidine-2,8-diamine], 10 nM; in that of `COc1cc(-c2cnn(C)c2)ccc1Nc1ncc2ccnc(N3CCC(OC)CC3)c2n1` [Example 138, N-(2-Methoxy-4-(1-methyl-1H-pyrazol-4-yl)phenyl)-8-(4-methoxypiperidin-1-yl)pyrido[3,4-d]pyrimidin-2-amine], 8 nM.
Regarding `COc1cc(C(=O)N2CC(OC)C2)ccc1Nc1cc2c(-c3cnn(C)c3C)cccc2cn1` [Example 13, (4-((5-(1,5-dimethyl-1H-pyrazol-4-yl)isoquinolin-3-yl)amino)-3-methoxyphenyl)(3-methoxyazetidin-1-yl)methanone], the IC50 amounted to 12 nM.
In the case of `COC(C)(C)CNc1nccc2cnc(Nc3ccc(Cl)cc3OC(F)F)nc12` [Example 202] it was 70 nM; in that of `COc1cc(N2CCN(S(C)(=O)=O)CC2)ccc1Nc1ncc2ccnc(NCC(C)(C)C)c2n1` [Example 176, N2-(2-methoxy-4-(4-(methylsulfonyl)piperazin-1-yl)phenyl)-N8-neopentylpyrido[3,4-d]pyrimidine-2,8-diamine], 3 nM.
With `COc1cc(-c2cnn(C)c2)ccc1Nc1ncc2ccnc(N3CC4(CCOC4)C3)c2n1` [Example 120, N-(2-methoxy-4-(1-methyl-1H-pyrazol-4-yl)phenyl)-8-(6-oxa-2-azaspiro[3.4]octan-2-yl)pyrido[3,4-d]pyrimidin-2-amine], the IC50 came out at 3 nM.
In the case of `COc1cc(-c2cnn(C)c2)ccc1Nc1ncc2ccnc(N3CCC(C#N)CC3)c2n1` [Example 140, 1-(2-(2-Methoxy-4-(1-methyl-1H-pyrazol-4-yl)phenylamino)pyrido[3,4-d]pyrimidin-8yl)piperidine-4-carbonitrile] it was 4 nM.
Take `COCCn1cc(-c2cccc3cnc(Nc4ccc(C(=O)N5CC(OC)C5)cc4OC)cc23)cn1` [Example 2, (3-methoxy-4-((5-(1-(2-methoxyethyl)-1H-pyrazol-4-yl)isoquinolin-3-yl)amino)phenyl)(3-methoxyazetidin-1-yl)methanone]: the IC50 was found to be 14 nM.
In the case of `CCn1cc(-c2nccc3cnc(Nc4ccc(-c5cnn(C)c5)cc4OC)nc23)cn1` [Example 91, 8-(1-ethyl-1H-pyrazol-4-yl)-N-(2-methoxy-4-(1-methyl-1H-pyrazol-4-yl)phenyl)pyrido[3,4-d]pyrimidin-2-amine] it was 10 nM; in that of `COc1cc(N2CCCCC2)ccc1Nc1ncc2ccnc(NCC(C)(C)C)c2n1` [Example 171, N2-(2-methoxy-4-(piperidin-1-yl)phenyl)-N8-neopentylpyrido[3,4-d]pyrimidine-2,8-diamine], 65 nM; in that of `COc1cc(-c2cnn(C)c2)c(C)cc1Nc1ncc2ccnc(-c3cnn(C)c3)c2n1` [Example 36], 100 nM.
Next, `COc1cc(-c2cnn(C)c2)ccc1Nc1ncc2ccnc(NCC(C)(F)F)c2n1` [Example 84, N8-(2,2-difluoropropyl)-N2-(2-methoxy-4-(1-methyl-1H-pyrazol-4-yl)phenyl)pyrido[3,4-d]pyrimidine-2,8-diamine]: 14 nM; `COc1cc(C(=O)N2CC(OC)C2)ccc1Nc1cc2c(-c3cnn(CCN(C)C)c3)cccc2cn1` [Example 1, (4-((5-(1-(2-(Dimethylamino)ethyl)-1H-pyrazol-4-yl)isoquinolin-3-yl)amino)-3-methoxyphenyl)(3-methoxyazetidin-1-yl)methanone]: 61 nM; `COc1cc(N2CCOCC2)ccc1Nc1ncc2ccnc(NCC(C)(C)C)c2n1` [Example 52, N2-(2-methoxy-4-morpholinophenyl)-N8-neopentyprido[3,4-d]pyrimidine-2,8-diamine]: 8 nM.
